# Experimental data from PubChem BioAssay AID493102 (Broad Institute, 2011).
# Tested on: SK-MEL-5 TRPM1-promoter luciferase reporter, 24 h
# Assay: reducers of TRPM1 reporter luminescence, concentration series – cell-based, SK-MEL-5, cherry-picked, set 4, MITF inhibitor project, dose response (AID 493102);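 note: actives lower the luciferase signal so the potency reflects inhibition of reporter expression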
row,SMILES,AC50 [µM]
1,CC1CCC(C(C)C)C(OC(=O)Cn2c(-c3ccc(F)cc3)[n+](C)c3ccccc32)C1 (stereo unspecified),5.57
2,COC1=C(Nc2ccccc2)C(=O)c2ccccc2C1=O,4.53
3,CC(OC(=O)c1ccc([N+](=O)[O-])s1)C(=O)NC1CCCCC1C (stereo unspecified),12
4,CC(C)c1ccc(/C=N/Nc2ccc(C(=O)O)cc2)cc1,3.53
5,CCSCCc1nnc(NC(=O)Nc2cccc(C(F)(F)F)c2)s1,8.99
6,O=C(N/N=C/c1ccc([N+](=O)[O-])s1)c1ccccc1Br,3.65
7,N#Cc1cc2c(nc1SC1CC(=O)N(c3ccccc3)C1=O)CCC2 (stereo unspecified),1.78
8,CCN(Cc1ccccc1)c1ccc(/C=N/N=C(N)N)cc1,6.37
9,COc1ccc(Br)cc1/C=C/C(=O)c1ccc(NC(C)=O)cc1,4.63
10,CCC(=O)OCCNc1cc(Sc2nc3ccccc3[nH]2)c2nonc2c1[N+](=O)[O-],9.14
11,COc1cc(NC(=O)COc2cc(O)c3c(c2)OC(C)(C)CC3=O)cc(OC)c1OC,5.36
12,CC(Oc1ccc(F)cc1)C(=O)Nc1nc(-c2ccccn2)cs1 (stereo unspecified),9.42
13,O=C(CCl)N1N=C(c2ccco2)CC1c1cccs1 (stereo unspecified),7.84
14,CCC(=O)OCCNc1cc(Sc2nccn2C)c2nonc2c1[N+](=O)[O-],7.16
15,COc1cc(C(=O)Oc2c(CN3CCOCC3)cc(Cl)c3cccnc23)cc(OC)c1OC,7.56
16,CN1CCN(c2ccc(NC(=O)c3ccc([N+](=O)[O-])o3)cc2Cl)CC1,9.02
17,CC(NC(=O)c1ccc([N+](=O)[O-])o1)C12CC3CC(CC(C3)C1)C2 (stereo unspecified),15.1
18,Cn1nnnc1Sc1ncnc2scc(-c3cccc(F)c3)c12,5.98
19,CCCCCn1c(=O)c(C(=O)Nc2cnccn2)c(O)c2ccccc21,5.93

row,SMILES,AC50 [µM]
1,O=C(/C=C/c1ccc(Cl)c([N+](=O)[O-])c1)c1ccc(O)cc1,17.4
2,CC(=O)Nc1ccc(NC(=O)c2nc(S(=O)(=O)Cc3ccccc3)ncc2Cl)cc1,12.8
3,CS(=O)(=O)N1CCN(c2ccc(NC(=O)c3ccc([N+](=O)[O-])o3)cc2)CC1,4.92
4,Cc1ccc(-n2cc(CNCCCn3ccnc3C)c(-c3ccc(F)cc3)n2)cc1,7.58
5,CS(=O)(=O)c1ccc(S(=O)CC(=O)OCc2ccccc2)c([N+](=O)[O-])c1 (stereo unspecified),5.46
6,CCN1CCc2c(sc(NC(=O)c3ccc(S(=O)(=O)N4CCCC4)cc3)c2C(=O)NC)C1,9.14
7,Cc1cc(C(=O)COc2cccnc2[N+](=O)[O-])c(C)n1-c1ccccc1,1.48
8,COc1ccc2nc(C)cc(NCc3cccc(C(F)(F)F)c3)c2c1,18.2
9,O=C(N/N=C/c1ccc([N+](=O)[O-])o1)c1ccccc1-n1cccc1,17.1
10,CC(C)(C)c1ccc(-c2noc(CCC(=O)NCC3CCCO3)n2)cc1 (stereo unspecified),0.275
11,CC(C)c1oc(=O)cc2c1[C@@H](O)[C@H]1OC(=O)[C@@]3(C)C[C@@H](O)[C@@H](O)[C@@]2(C)C13 (stereo partly specified),1.63
12,CCOC(=O)c1c(C)oc2c(F)c(F)c(F)c(F)c2c1=O,2.32
13,CC1C/C(=C\c2cccnc2)C(=O)/C(=C/c2cccnc2)C1 (stereo unspecified),2.66
14,O=C(/C=C/c1cccc([N+](=O)[O-])c1)n1cnc2ccccc21,4.39
15,O=C1NC(=O)N(Cc2ccccc2)C(=O)/C1=C\C=C\c1ccco1,6.29
16,O=C(COC(=O)c1ccccc1C(=O)c1ccc(Cl)c([N+](=O)[O-])c1)NC1CC1,8.92
17,O=C1NC(=O)N(Cc2ccccc2Cl)C(=O)/C1=C/c1cccs1,29.7
18,Cc1ccc(/C=N/Nc2ccc(C(=O)O)cc2)s1,3.3
19,O=C(/C=C/c1ccc([N+](=O)[O-])s1)N1CCCC1,9.86

row,SMILES,AC50 [µM]
1,CCOC(=O)N1CCN(C(=O)c2ccc(Cn3c(=S)[nH]c4ccc(Br)cc4c3=O)cc2)CC1,3.52
2,O=C1C(Nc2ccccc2)=C(N2CCCCC2)C(=O)c2ccccc21,6.67
3,C=CCN=C1NN=C(c2ccc3c(c2)OCCO3)CS1,3.37
4,CC1CCCC(NC(=O)NC(=O)CCl)C1C (stereo unspecified),12.4
5,Cc1cc2ncn(/N=C/c3ccc([N+](=O)[O-])o3)c2cc1C,21.9
6,O=C(N/N=C/c1ccc([N+](=O)[O-])o1)c1ccc(O)cc1,5.2
7,COc1cc2c(cc1/C=C/[N+](=O)[O-])OCO2,8.98
8,Cc1ccc(C)c(S(=O)(=O)N2CCN(Cc3ccc(O)c4ncccc34)CC2)c1,4.44
9,Oc1ccc(CNc2ccccc2F)c2cccnc12,15.1
10,Cc1cccc(NC(=O)c2ccc([N+](=O)[O-])o2)c1C,14.8
11,CCOc1ccccc1NC(=O)C(=O)N/N=C/c1cc(Br)ccc1O,3.34
12,COc1ccccc1N1C(=O)N(C(C)=O)C2C1Nc1ccccc1N2C (stereo unspecified),10.5
13,Cc1cc(C)cc(NS(=O)(=O)c2ccc3c(c2)c(=O)n(C)c(=O)n3C)c1,4.67
14,N#CC(C#N)=C1C=CC=CN1/C(=C\c1ccco1)C(=O)c1ccc(Br)cc1,5.59
15,Cc1cc(C)c2nc3nc(C)cc(C)c3c(N)c2c1,5.72
16,Cc1ccc(-c2cc(-c3ccc(C)cc3)[n+](C)o2)cc1,8.24
17,CS(=O)(=O)c1ccc(C(=O)OCC(=O)NCc2cccs2)cc1[N+](=O)[O-],11.7
18,COc1cccc(-c2nnc3n2N=C(C(C)(C)C)CS3)c1,4.82
